Measured values published in PubChem BioAssay (NCI).
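48-hour exposure; five concentrations; linearly interpolated endpoints. GI50 = concentration required for 50% inhibition of growth. At the TGI there is no net growth.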

Experiments:
Test in all cases: NCI tumour cell line growth inhibition, 48 h
OVCAR-5 ovarian = system: OVCAR-5 ovarian
SF-268 CNS = system: SF-268 CNS
SK-MEL-2 melanoma = system: SK-MEL-2 melanoma
MALME-3M melanoma = system: MALME-3M melanoma
K-562 leukemia = system: K-562 leukemia
KM12 colon = system: KM12 colon
ACHN renal = system: ACHN renal
HCT-15 colon = system: HCT-15 colon
SK-MEL-28 melanoma = system: SK-MEL-28 melanoma
CCRF-CEM leukemia = system: CCRF-CEM leukemia
OVCAR-3 ovarian = system: OVCAR-3 ovarian
MOLT-4 leukemia = system: MOLT-4 leukemia
CAKI-1 renal = system: CAKI-1 renal
MCF7 breast = system: MCF7 breast
BT-549 breast = system: BT-549 breast
TK-10 renal = system: TK-10 renal
SR leukemia = system: SR leukemia
LOX IMVI melanoma = system: LOX IMVI melanoma
NCI-H522 lung = system: NCI-H522 lung
OVCAR-8 ovarian = system: OVCAR-8 ovarian
HS 578T breast = system: HS 578T breast
HT29 colon = system: HT29 colon
UACC-62 melanoma = system: UACC-62 melanoma
IGROV1 ovarian = system: IGROV1 ovarian
SF-539 CNS = system: SF-539 CNS
DU-145 prostate = system: DU-145 prostate
HOP-92 NSCLC = system: HOP-92 NSCLC
A498 renal = system: A498 renal
EKVX NSCLC = system: EKVX NSCLC

Work on COC(=O)c1ccc2[nH]c(O)c(C(=Nc3ccc(N(C)C(=O)CN4CCN(C)CC4)cc3)c3ccc(OC)cc3)c2c1 yielded a GI50 (OVCAR-5 ovarian) of 5.21 µM, a TGI (OVCAR-5 ovarian) of 17.6 µM and a GI50 (SF-268 CNS) of 2.61 µM. For the same compound, the TGI (SF-268 CNS) was 13.6 µM, the GI50 (SK-MEL-2 melanoma) was 2.04 µM and the TGI (SK-MEL-2 melanoma) was 7.04 µM. It also gave a GI50 (MALME-3M melanoma) of 1.33 µM, a TGI (MALME-3M melanoma) of 2.72 µM and a GI50 (K-562 leukemia) of 0.255 µM. The TGI (K-562 leukemia) was 10.2 µM, the GI50 (KM12 colon) was 0.0432 µM and the TGI (KM12 colon) was 6.45 µM. It also gave a GI50 (ACHN renal) of 1.71 µM, a TGI (ACHN renal) of 10.3 µM and a GI50 (HCT-15 colon) of 1.81 µM. For the same compound, the TGI (HCT-15 colon) was 6.61 µM, the GI50 (SK-MEL-28 melanoma) was 3.15 µM and the TGI (SK-MEL-28 melanoma) was 14 µM. It also gave a GI50 (CCRF-CEM leukemia) of 0.414 µM, a TGI (CCRF-CEM leukemia) of 11.1 µM and a GI50 (OVCAR-3 ovarian) of 1.23 µM. For the same compound, the TGI (OVCAR-3 ovarian) was 2.83 µM, the GI50 (MOLT-4 leukemia) was 0.414 µM and the TGI (MOLT-4 leukemia) was 3.62 µM. The GI50 (CAKI-1 renal) was 0.383 µM, the TGI (CAKI-1 renal) was 11.1 µM and the GI50 (MCF7 breast) was 0.518 µM. It also gave a TGI (MCF7 breast) of 2.49 µM, a GI50 (BT-549 breast) of 1.15 µM and a TGI (BT-549 breast) of 2.65 µM. It also gave a GI50 (TK-10 renal) of 2.39 µM, a TGI (TK-10 renal) of 12.4 µM and a GI50 (SR leukemia) of 0.309 µM. For the same compound, the TGI (SR leukemia) was 4.92 µM, the GI50 (LOX IMVI melanoma) was 0.506 µM and the TGI (LOX IMVI melanoma) was 2.13 µM. For the same compound, the GI50 (NCI-H522 lung) was 1.66 µM, the TGI (NCI-H522 lung) was 5.6 µM and the GI50 (OVCAR-8 ovarian) was 1.18 µM. The TGI (OVCAR-8 ovarian) was 24.6 µM, the GI50 (HS 578T breast) was 0.186 µM and the TGI (HS 578T breast) was 10.3 µM. The GI50 (HT29 colon) was 1.11 µM, the TGI (HT29 colon) was 25.2 µM and the GI50 (UACC-62 melanoma) was 4.96 µM. For the same compound, the TGI (UACC-62 melanoma) was 18.6 µM, the GI50 (IGROV1 ovarian) was 0.226 µM and the TGI (IGROV1 ovarian) was 2.6 µM. It also gave a GI50 (SF-539 CNS) of 0.473 µM, a TGI (SF-539 CNS) of 1.76 µM and a GI50 (DU-145 prostate) of 2.37 µM. The TGI (DU-145 prostate) was 11.3 µM, the GI50 (HOP-92 NSCLC) was 3.7 µM and the TGI (HOP-92 NSCLC) was 15.2 µM. The GI50 (A498 renal) was 1.52 µM, the TGI (A498 renal) was 3.11 µM and the GI50 (EKVX NSCLC) was 2.38 µM. For the same compound, the TGI (EKVX NSCLC) was 12.4 µM.
